From patent US8927033B2, “Hyperlipemia-ameliorating agent, anemia-ameliorating composition, uric-acid-level-reducing composition, and food or beverage” (Lion Corporation, priority 2009, dated 2015)

Test system: Type 2-diabetes model mice KK-Ay/Ta Jc1
Test: Study on hyperlipemia-ameliorating effects (plasma neutral fat, total cholesterol, free fatty acid, visceral fat, body weight)
Assay type: in vivo
Conditions: for Body weight (average g/±SD) / Neutral fat level (average mg/dL ± SD) / Free fatty acid level (average mEq/L ± SD) / Total cholesterol level (average mg/dL ± SD) / Visceral fat level (average g ± SD): 0.05% by mass in feed CE2, 5 days; for Body weight (average g/±SD) / Neutral fat level (average mg/dL ± SD): overnight fast; for Body weight (average g/±SD): control group 52.3 ± 4.2; for cholesterol level-regulating effect compared with the control group / free fatty acid level-regulating effect compared with the control group / reduction in body weight compared with the control group / reduction in the visceral fat level compared with the control group / neutral fat level-regulating effect compared with the control group: in words, 0.05% (aglycons) or 1.0% by mass (products) in feed, 5 days; for neutral fat level-regulating effect compared with the control group: Dunnett's test; for Neutral fat level (average mg/dL ± SD) / Free fatty acid level (average mEq/L ± SD) / Total cholesterol level (average mg/dL ± SD): plasma; for Neutral fat level (average mg/dL ± SD): control group 407.3 ± 20.9; for Free fatty acid level (average mEq/L ± SD): control group 1.95 ± 0.3; for Total cholesterol level (average mg/dL ± SD): control group 195.5 ± 10.7; for Visceral fat level (average g ± SD): retroperitoneal + epididymal + perirenal fat, control group 8.2 ± 1.0
From the text: Protopanaxatriol (PPT) (product of Funakoshi Corporation), panaxatriol (PT) (product of Funakoshi Corporation), protopanaxadiol (PPD) (product of Funakoshi Corporation) and panaxadiol (PD) (product of Funakoshi Corporation) were each added to feed CE2 (product of CLEA Japan, Inc.) so that the concentration thereof was 0.05% by mass.
Similarly, the strong acid-treated Panax notoginseng product (Production Example 1) and Panax notoginseng powder (product of MATSUURA YAKUGYO CO., LTD.) were each added to feed CE2 (product of CLEA Japan, Inc.) so that the concentration thereof was 1.0% by mass.
Feed CE2 (product of CLEA Japan, Inc.) containing no other additives was used as feed for the control group.
Type 2-diabetes model mice KK-Ay/Ta Jc1 (male, 4 weeks old, 8 mice/group, product of CLEA Japan, Inc.) were preliminarily bred for 7 days. Thereafter, they were bred for 5 days with the above-prepared feed CE2, containing no other additives or containing PPT, PT, PPD, PD, the strong acid-treated Panax notoginseng product or Panax notoginseng powder.
The mice bred for 5 days in the above-described manner were measured for the body weight after an overnight fast. The blood was collected from them. The collected blood sample was used to measure the plasma neutral-fat level with […] (product of Wako Pure Chemical Industries, Ltd.), the plasma total-cholesterol level with CHOLESTEROL E-TEST WAKO (product of Wako Pure Chemical Industries, Ltd.) and the plasma free-fatty-acid level with […] (product of Wako Pure Chemical Industries, Ltd.). In addition, retroperitoneal fat, fat surrounding the epididymis, and fat surrounding the kidney were sampled and weighed. The total mass thereof was used as the visceral fat level. The above-measured plasma neutral-fat level, plasma total-cholesterol level, plasma free-fatty-acid level, visceral fat level and body weight were verified using the Dunnett's multiple test. A p value of 0.05 or lower was considered statistically significant.

CC1(C)CCC[C@](C)([C@H]2CC[C@]3(C)[C@@H]2[C@H](O)C[C@@H]2[C@@]4(C)CC[C@H](O)C(C)(C)[C@@H]4CC[C@]23C)O1 [PD, panaxadiol]
Body weight (average g/±SD): 47.3 ± 1.9 g
cholesterol level-regulating effect compared with the control group: significantly superior to that of the control group
free fatty acid level-regulating effect compared with the control group: significantly superior to that of the control group
reduction in body weight compared with the control group: significant reduction in body weight
reduction in the visceral fat level compared with the control group: significant reduction in the visceral fat level
neutral fat level-regulating effect compared with the control group: significantly superior to that of the control group
Neutral fat level (average mg/dL ± SD): 180.7 ± 34.2 mg/dL
Free fatty acid level (average mEq/L ± SD): 1.04 ± 0.12 mEq/L
Total cholesterol level (average mg/dL ± SD): 101.5 ± 15.6 mg/dL
Visceral fat level (average g ± SD): 5.5 ± 1.6 g

CC(C)=CCC[C@](C)(O)[C@H]1CC[C@]2(C)[C@@H]1[C@H](O)C[C@@H]1[C@@]3(C)CC[C@H](O)C(C)(C)[C@@H]3[C@@H](O)C[C@]12C [PPT, Protopanaxatriol]
Body weight (average g/±SD): 45.3 ± 2.2 g
cholesterol level-regulating effect compared with the control group: significantly superior to that of the control group
free fatty acid level-regulating effect compared with the control group: significantly superior to that of the control group
reduction in body weight compared with the control group: significant reduction in body weight
reduction in the visceral fat level compared with the control group: significant reduction in the visceral fat level
neutral fat level-regulating effect compared with the control group: significantly superior to that of the control group
Neutral fat level (average mg/dL ± SD): 138.5 ± 25.3 mg/dL
Free fatty acid level (average mEq/L ± SD): 0.93 ± 0.08 mEq/L
Total cholesterol level (average mg/dL ± SD): 128.3 ± 17.8 mg/dL
Visceral fat level (average g ± SD): 5.5 ± 1.3 g

CC(C)=CCCC(C)(O)[C@H]1CC[C@]2(C)[C@@H]1[C@H](O)C[C@@H]1[C@@]3(C)CC[C@H](O)C(C)(C)[C@@H]3CC[C@]12C (stereo in doubt) [PPD, protopanaxadiol]
Body weight (average g/±SD): 46.8 ± 2.6 g
cholesterol level-regulating effect compared with the control group: significantly superior to that of the control group
free fatty acid level-regulating effect compared with the control group: significantly superior to that of the control group
reduction in body weight compared with the control group: significant reduction in body weight
reduction in the visceral fat level compared with the control group: significant reduction in the visceral fat level
neutral fat level-regulating effect compared with the control group: significantly superior to that of the control group
Neutral fat level (average mg/dL ± SD): 151.4 ± 26.9 mg/dL
Free fatty acid level (average mEq/L ± SD): 0.81 ± 0.08 mEq/L
Total cholesterol level (average mg/dL ± SD): 123.2 ± 19.6 mg/dL
Visceral fat level (average g ± SD): 5.9 ± 1.3 g

CC1(C)CCC[C@](C)([C@H]2CC[C@]3(C)[C@@H]2[C@H](O)C[C@@H]2[C@@]4(C)CC[C@H](O)C(C)(C)[C@@H]4[C@@H](O)C[C@]23C)O1 [PT, panaxatriol]
Body weight (average g/±SD): 43.9 ± 2.8 g
cholesterol level-regulating effect compared with the control group: significantly superior to that of the control group
free fatty acid level-regulating effect compared with the control group: significantly superior to that of the control group
reduction in body weight compared with the control group: significant reduction in body weight
reduction in the visceral fat level compared with the control group: significant reduction in the visceral fat level
neutral fat level-regulating effect compared with the control group: significantly superior to that of the control group
Neutral fat level (average mg/dL ± SD): 163 ± 32.8 mg/dL
Free fatty acid level (average mEq/L ± SD): 0.84 ± 0.07 mEq/L
Total cholesterol level (average mg/dL ± SD): 102.9 ± 16.7 mg/dL
